The record followed here is patent US20230114728A1 (Venatorx Pharmaceuticals, Inc., priority 2019, published 2023).

For assay [1], the target named is T1, E. coli K12 PBP3 (Escherichia coli, UniProt P0AD68).
T1 construct: made in house
In words: biochemical. The assay is classed as binding. In short, it runs like this:
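A. baumannii PBP2 (2.5 μM) and PBP3 (0.2 μM) were run in 25 mM Tris pH 8.0 buffer with Tween 20; E. coli PBP3 (1.5 μM) and N. gonorrhoeae PBP2 ([…]) in 50 mM Hepes pH 8.0 buffer.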

Assay [2] deals with N. gonorrhoeae WHO K. As to the kind of experiment: Liquid broth MIC in Fastidious broth. It counts as cell-based. To be noted: Neisseria gonorrhoeae, read-out: Minimum Inhibitory Concentration, N. gonorrhoeae WHO K. In short, it runs like this:
(§1)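 Mosaic PBP2 producers; colonies from 24 h chocolate agar, saline suspension, OD600. Fastidious broth, 2-fold dilutions, 5×10^5 CFU/mL. ~24 h, 36 °C, 5% CO2; visual MIC, <10% growth cutoff.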

Assay [3] relates to N. gonorrhoeae WHO L. In words: Liquid broth MIC in Fastidious broth. The assay is classed as cell-based. As to conditions: Neisseria gonorrhoeae; N. gonorrhoeae strain WHO L; Fastidious broth; read-out: Minimum Inhibitory Concentration, N. gonorrhoeae WHO L. In short, it runs like this:
(§2)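 Colonies were swabbed from chocolate agar after 24 h growth and standardised by optical density at 600 nm. Compounds were serially diluted twofold in Fastidious broth, and bacteria added to give 5×10^5 CFU/mL. After about 24 h at 36 °C in 5% CO2, the lowest concentration allowing under 10% growth was taken as MIC.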

The subject of assay [4] is N. gonorrhoeae WHO Q. As to the kind of experiment: Liquid broth MIC in Fastidious broth. The assay is classed as cell-based. As to conditions: Neisseria gonorrhoeae, read-out: Minimum Inhibitory Concentration, N. gonorrhoeae WHO Q. In outline:
as §1

The subject of assay [5] is N. gonorrhoeae WHO G. In words: Liquid broth MIC in Fastidious broth. The assay is classed as cell-based. As to conditions: Neisseria gonorrhoeae; N. gonorrhoeae strain WHO G; Fastidious broth; read-out: Minimum Inhibitory Concentration, N. gonorrhoeae WHO G. In outline: as §2
Assay [6] relates to N. gonorrhoeae FA1090. As to the kind of experiment: Liquid broth MIC in Fastidious broth. It counts as cell-based. As to conditions: Neisseria gonorrhoeae; N. gonorrhoeae strain FA1090; Fastidious broth; read-out: Minimum Inhibitory Concentration, N. gonorrhoeae FA1090. In outline:
as §2

Assay [7] concerns N. gonorrhoeae WHO Z. In words: Liquid broth MIC in Fastidious broth. The assay is classed as cell-based. As to conditions: Neisseria gonorrhoeae, read-out: Minimum Inhibitory Concentration, N. gonorrhoeae WHO Z. In outline:
as §1

Assay [8] has as its system N. gonorrhoeae ATCC 49226. As to the kind of experiment: Liquid broth MIC in Fastidious broth. As to conditions: Neisseria gonorrhoeae, ATCC49226; N. gonorrhoeae strain ATCC 49226; Fastidious broth; read-out: Minimum Inhibitory Concentration, N. gonorrhoeae ATCC 49226. The assay is classed as cell-based. In short, it runs like this: as §2
In assay [9] the test system is N. gonorrhoeae H041. In words: Liquid broth MIC in Fastidious broth. To be noted: Neisseria gonorrhoeae, H041, read-out: Minimum Inhibitory Concentration, N. gonorrhoeae H041. The assay is classed as cell-based. In short, it runs like this:
as §1

pEC50: −log10 of the molar value. Values after ≈ are worked out from the molar mass of the structure shown.

For orientation: pEC50 means the EC50 on a negative log10 scale, so that one unit is a factor of ten. A lower pEC50 goes with a high EC50.

T1 sequence (P0AD68 1-577): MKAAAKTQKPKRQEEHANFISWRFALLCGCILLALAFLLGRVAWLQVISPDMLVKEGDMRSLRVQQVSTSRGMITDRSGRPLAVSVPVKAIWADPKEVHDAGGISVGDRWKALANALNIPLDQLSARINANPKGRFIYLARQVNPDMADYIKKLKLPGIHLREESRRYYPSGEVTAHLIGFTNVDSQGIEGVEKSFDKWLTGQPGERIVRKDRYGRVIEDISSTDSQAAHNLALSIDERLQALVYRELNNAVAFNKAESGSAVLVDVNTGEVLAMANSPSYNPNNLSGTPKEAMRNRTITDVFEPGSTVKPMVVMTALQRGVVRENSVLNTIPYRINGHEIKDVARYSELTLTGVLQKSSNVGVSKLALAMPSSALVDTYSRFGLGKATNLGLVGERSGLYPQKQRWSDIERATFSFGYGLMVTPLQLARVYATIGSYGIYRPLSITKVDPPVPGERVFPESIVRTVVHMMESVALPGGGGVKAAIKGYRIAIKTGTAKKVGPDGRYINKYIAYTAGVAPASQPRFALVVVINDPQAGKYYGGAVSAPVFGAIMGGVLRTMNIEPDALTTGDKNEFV

In turn, `CCN1CCN(C(=O)NC(C(=O)N[C@H]2Cc3cccc(C(=O)O)c3OB2O)c2cc(F)c(O)cc2F)C(=O)C1=O` (stereo partly drawn) [Example 104, (3R)-3-(2-(2,5-difluoro-4-hydroxyphenyl)-2-(4-ethyl-2,3-dioxopiperazine-1-carboxamido)acetamido)-2-hydroxy-3,4-dihydro-2H-benzo[e][1,2]oxaborinine-8-carboxylic acid] had a pEC50 in assay [1] of over 4.52. For the same compound, the MIC in [2] fell in the range of 16 to 32 µg/mL (≈ 28.6 to 57.1 µM); in assay [3], 16 to 32 µg/mL (≈ 28.6 to 57.1 µM); in [4], 4 to 8 µg/mL (≈ 7.14 to 14.3 µM); in assay [5], 1 to 2 µg/mL (≈ 1.78 to 3.57 µM); in [6], 0.25 to 0.5 µg/mL (≈ 0.446 to 0.892 µM); in assay [7], 4 to 8 µg/mL (≈ 7.14 to 14.3 µM). The MIC in assay [8] fell in the range of 4 to 8 µg/mL (≈ 7.14 to 14.3 µM); in assay [9], 16 to 32 µg/mL (≈ 28.6 to 57.1 µM).

On to `CCN1CCN(C(=O)NC(C(=O)N[C@H]2Cc3cccc(C(=O)O)c3OB2O)c2c(F)cc(O)cc2F)C(=O)C1=O` (stereo partly drawn) [Example 105, (3R)-3-(2-(2,6-difluoro-4-hydroxyphenyl)-2-(4-ethyl-2,3-dioxopiperazine-1-carboxamido)acetamido)-2-hydroxy-3,4-dihydro-2H-benzo[e][1,2]oxaborinine-8-carboxylic acid], for which, in assay [1], the negative-log EC50 (pEC50) is over 4.52. For the same compound, the MIC was 16 to 32 µg/mL (≈ 28.6 to 57.1 µM) in [2]; 16 to 32 µg/mL (≈ 28.6 to 57.1 µM) in assay [3]; 4 to 8 µg/mL (≈ 7.14 to 14.3 µM) in assay [4]; 0.25 to 0.5 µg/mL (≈ 0.446 to 0.892 µM) in assay [5]; under 0.125 µg/mL in [6]; 4 to 8 µg/mL (≈ 7.14 to 14.3 µM) in assay [7]. In addition, the MIC in [8] was 4 to 8 µg/mL (≈ 7.14 to 14.3 µM); in assay [9] it was 16 to 32 µg/mL (≈ 28.6 to 57.1 µM).

As to `CCN1CCN(C(=O)NC(C(=O)N[C@H]2Cc3cccc(C(=O)O)c3OB2O)c2c(F)c(O)cc(O)c2F)C(=O)C1=O` (stereo partly drawn) [Example 106, (3R)-3-(2-(2,6-difluoro-3,5-dihydroxyphenyl)-2-(4-ethyl-2,3-dioxopiperazine-1-carboxamido)acetamido)-2-hydroxy-3,4-dihydro-2H-benzo[e][1,2]oxaborinine-8-carboxylic acid], the pEC50 in assay [1] is 3.30 to 4.52. The MIC was over 64 µg/mL in [2]; over 64 µg/mL in [3]; over 64 µg/mL in [4]; 16 to 32 µg/mL (≈ 27.8 to 55.5 µM) in [5]; 16 to 32 µg/mL (≈ 27.8 to 55.5 µM) in [6]; over 64 µg/mL in assay [7]. In addition, the MIC in assay [8] and in [9] was over 64 µg/mL each time.

Compound `CCN1CCN(C(=O)NC(C(=O)N[C@H]2Cc3cccc(C(=O)O)c3OB2O)c2cccc(CNS(N)(=O)=O)c2)C(=O)C1=O` (stereo partly drawn) [Example 107, (3R)-3-(2-(4-ethyl-2,3-dioxopiperazine-1-carboxamido)-2-(3-((sulfamoylamino)methyl)phenyl)acetamido)-2-hydroxy-3,4-dihydro-2H-benzo[e][1,2]oxaborinine-8-carboxylic acid] showed a pEC50 in [1] of 3.30 to 4.52. Also, the MIC was over 64 µg/mL in assay [2]; over 64 µg/mL in assay [3]; over 64 µg/mL in [4]; 16 to 32 µg/mL (≈ 26 to 51.9 µM) in assay [5]; 1 to 2 µg/mL (≈ 1.62 to 3.24 µM) in [6]; over 64 µg/mL in assay [7]. The MIC in assay [8] and in [9] was over 64 µg/mL throughout.

The compound `CCN1CCN(C(=O)NC(C(=O)N[C@H]2Cc3cccc(C(=O)O)c3OB2O)c2cccc(CN)c2)C(=O)C1=O` (stereo partly drawn) [Example 108, (3R)-3-(2-(3-(aminomethyl)phenyl)-2-(4-ethyl-2,3-dioxopiperazine-1-carboxamido)acetamido)-2-hydroxy-3,4-dihydro-2H-benzo[e][1,2]oxaborinine-8-carboxylic acid] had a pEC50 in assay [1] of 3.30 to 4.52. Further, the MIC in [2] is over 64 µg/mL; in assay [3] it was over 64 µg/mL; in assay [4] it was over 64 µg/mL; in assay [5] it was 4 to 8 µg/mL (≈ 7.44 to 14.9 µM); in assay [6], 1 to 2 µg/mL (≈ 1.86 to 3.72 µM); in assay [7], over 64 µg/mL. The MIC in assay [8] was 16 to 32 µg/mL (≈ 29.8 to 59.6 µM); in [9], over 64 µg/mL.

With `NCCN1CCN(C(=O)NC(C(=O)N[C@H]2Cc3cccc(C(=O)O)c3OB2O)c2cc(F)c(O)cc2Cl)C(=O)C1=O` (stereo partly drawn) [Example 109, (3R)-3-(2-(4-(2-aminoethyl)-2,3-dioxopiperazine-1-carboxamido)-2-(2-chloro-5-fluoro-4-hydroxyphenyl)acetamido)-2-hydroxy-3,4-dihydro-2H-benzo[e][1,2]oxaborinine-8-carboxylic acid], the pEC50 in assay [1] is over 4.52. The MIC is over 64 µg/mL in [2]; over 64 µg/mL in assay [3]; over 64 µg/mL in assay [4]; over 64 µg/mL in [5]; 4 to 8 µg/mL (≈ 6.76 to 13.5 µM) in [6]; over 64 µg/mL in assay [7]. The MIC in assay [8] and in [9] was over 64 µg/mL each time.

`CCN1CCN(C(=O)NC(C(=O)N[C@H]2Cc3cccc(C(=O)O)c3OB2O)c2cncc(O)c2)C(=O)C1=O` (stereo partly drawn) [Example 112, (3R)-3-(2-(4-ethyl-2,3-dioxopiperazine-1-carboxamido)-2-(5-hydroxypyridin-3-yl)acetamido)-2-hydroxy-3,4-dihydro-2H-benzo[e][1,2]oxaborinine-8-carboxylic acid]: the pEC50 in assay [1] is 3.30 to 4.52. Also, the MIC in assay [2] was over 64 µg/mL; in [3], over 64 µg/mL; in [4], 16 to 32 µg/mL (≈ 30.5 to 60.9 µM); in assay [5], 4 to 8 µg/mL (≈ 7.61 to 15.2 µM); in [6], 1 to 2 µg/mL (≈ 1.9 to 3.81 µM); in assay [7], 16 to 32 µg/mL (≈ 30.5 to 60.9 µM). Besides, the MIC in assay [8] is 4 to 8 µg/mL (≈ 7.61 to 15.2 µM); in [9], over 64 µg/mL.

As for `CCN1CCN(C(=O)NC(C(=O)N[C@H]2Cc3cccc(C(=O)O)c3OB2O)c2cccc(C(=O)O)c2)C(=O)C1=O` (stereo partly drawn) [Example 113, (3R)-3-(2-(3-carboxyphenyl)-2-(4-ethyl-2,3-dioxopiperazine-1-carboxamido)acetamido)-2-hydroxy-3,4-dihydro-2H-benzo[e][1,2]oxaborinine-8-carboxylic acid], in [1], the pEC50 is over 4.52. For the same compound, the MIC in assay [2] is over 64 µg/mL; in [3] it was over 64 µg/mL; in assay [4] it was 16 to 32 µg/mL (≈ 29 to 57.9 µM); in assay [5], 4 to 8 µg/mL (≈ 7.24 to 14.5 µM); in assay [6], 0.25 to 0.5 µg/mL (≈ 0.453 to 0.905 µM); in assay [7], 16 to 32 µg/mL (≈ 29 to 57.9 µM). For the same compound, the MIC is 4 to 8 µg/mL (≈ 7.24 to 14.5 µM) in assay [8] and over 64 µg/mL in assay [9].

As to `NS(=O)(=O)Nc1cccc(C(NC(=O)N2CCN(CCF)C(=O)C2=O)C(=O)N[C@H]2Cc3cccc(C(=O)O)c3OB2O)c1` (stereo partly drawn) [Example 116, (3R)-3-(2-(4-(2-fluoroethyl)-2,3-dioxopiperazine-1-carboxamido)-2-(3-(sulfamoylamino)phenyl)acetamido)-2-hydroxy-3,4-dihydro-2H-benzo[e][1,2]oxaborinine-8-carboxylic acid], the pEC50 in [1] is over 4.52. Also, the MIC in assay [2] is 16 to 32 µg/mL (≈ 25.8 to 51.6 µM); in [3], over 64 µg/mL; in assay [4] it was 16 to 32 µg/mL (≈ 25.8 to 51.6 µM); in assay [5], 4 to 8 µg/mL (≈ 6.45 to 12.9 µM); in [6] it was 0.25 to 0.5 µg/mL (≈ 0.403 to 0.806 µM); in assay [7], 16 to 32 µg/mL (≈ 25.8 to 51.6 µM). The MIC in assay [8] was 16 to 32 µg/mL (≈ 25.8 to 51.6 µM); in [9], over 64 µg/mL.

In the case of `NCCCN1CCN(C(=O)N[C@@H](C(=O)N[C@H]2Cc3cccc(C(=O)O)c3OB2O)c2cccc(NS(N)(=O)=O)c2)C(=O)C1=O` [Example 117, (R)-3-((R)-2-(4-(3-aminopropyl)-2,3-dioxopiperazine-1-carboxamido)-2-(3-(sulfamoylamino)phenyl)acetamido)-2-hydroxy-3,4-dihydro-2H-benzo[e][1,2]oxaborinine-8-carboxylic acid], in [1], the pEC50 was 3.30 to 4.52. For the same compound, the MIC in assay [2] was over 64 µg/mL; in assay [3] it was over 64 µg/mL; in [4] it was over 64 µg/mL; in assay [5] it was 16 to 32 µg/mL (≈ 25.3 to 50.7 µM); in assay [6] it was 4 to 8 µg/mL (≈ 6.33 to 12.7 µM); in [7], over 64 µg/mL. The MIC in [8] and in assay [9] was over 64 µg/mL in each case.

In assay [1], `NCCCN1CCN(C(=O)N[C@H](C(=O)N[C@H]2Cc3cccc(C(=O)O)c3OB2O)c2cccc(NS(N)(=O)=O)c2)C(=O)C1=O` [Example 118, (R)-3-((S)-2-(4-(3-aminopropyl)-2,3-dioxopiperazine-1-carboxamido)-2-(3-(sulfamoylamino)phenyl)acetamido)-2-hydroxy-3,4-dihydro-2H-benzo[e][1,2]oxaborinine-8-carboxylic acid] had a pEC50 of 3.30 to 4.52. The MIC in assay [2] is over 64 µg/mL; in assay [3], over 64 µg/mL; in assay [4], over 64 µg/mL; in [5], over 64 µg/mL; in assay [6], 4 to 8 µg/mL (≈ 6.33 to 12.7 µM); in assay [7] it was over 64 µg/mL. Further, the MIC in [8] and in assay [9] was over 64 µg/mL in each case.
